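Cells were grown in 96-well plates and exposed to each compound for 48 hours at five concentrations; endpoints were interpolated linearly between bracketing concentrations, or set to the highest concentration if not reached. GI50 marks 50% less growth.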 The source made the active and inactive calls. No stated cut-off is given here; in the data, active = GI50 up to about 1.1 µM and inactive = higher.
Experiments:
Test in all cases: inhibition of tumour cell growth, NCI panel, 48 h
[1] = test system: LOX IMVI
[2] = test system: RPMI-8226
[3] = test system: NCI-H522
[4] = test system: OVCAR-5
[5] = test system: SNB-75
[6] = test system: SF-539
[7] = test system: M14
[8] = test system: IGROV-1
[9] = test system: SK-MEL-28
[10] = test system: HOP-92
[11] = test system: NCI-H226
[12] = test system: HCT-116
[13] = test system: HCT-15
[14] = test system: HT-29
[15] = test system: T47D
[16] = test system: SK-MEL-2
[17] = test system: NCI/ADR-RES
[18] = test system: NCI-H23

Compound	GI50 [1]	GI50 [2]	GI50 [3]	GI50 [4]	GI50 [5]	GI50 [6]	GI50 [7]	GI50 [8]	GI50 [9]	GI50 [10]	GI50 [11]	GI50 [12]	GI50 [13]	GI50 [14]	GI50 [15]	GI50 [16]	GI50 [17]	GI50 [18]
O=C(O)c1cc(/C=C/c2ccc(O)c(O)c2)ccc1O	> 100 µM (inactive)	31 µM (inactive)	> 100 µM (inactive)	> 100 µM (inactive)	> 100 µM (inactive)	> 100 µM (inactive)	45.8 µM (inactive)	> 100 µM (inactive)	> 100 µM (inactive)	> 100 µM (inactive)	> 100 µM (inactive)	40 µM (inactive)	> 100 µM	> 100 µM (inactive)	> 100 µM (inactive)	> 100 µM (inactive)	> 100 µM (inactive)	> 100 µM (inactive)
CN(C)c1ccc(C=c2c3ccccc3n3c2cc(-c2ccc(Cl)cc2)[n+]3C)cc1	0.194 µM (active)	0.0372 µM (active)	0.0577 µM (active)	1.04 µM (active)	0.307 µM (active)	0.228 µM (active)	0.301 µM (active)	–	0.519 µM (active)	0.221 µM (active)	0.573 µM (active)	0.0653 µM (active)	1.47 µM	0.315 µM (active)	0.133 µM (active)	0.237 µM (active)	6.41 µM (inactive)	0.195 µM (active)
COc1cc(C2c3cc4c(cc3OC(NNC(N)=S)C2C)OCO4)cc(OC)c1OC (configuration not stated)	0.412 µM (active)	0.29 µM (active)	0.303 µM (active)	–	71.3 µM (inactive)	0.199 µM (active)	0.351 µM (active)	0.441 µM (active)	0.524 µM (active)	0.152 µM (active)	0.721 µM (active)	0.244 µM (active)	0.451 µM	0.269 µM (active)	26.1 µM (inactive)	25.6 µM (inactive)	0.585 µM (active)	0.38 µM (active)
CC(C)(C)OC(=O)N1N=CCC1c1ccccc1 (configuration not stated)	> 100 µM (inactive)	> 100 µM (inactive)	> 100 µM (inactive)	> 100 µM (inactive)	> 100 µM (inactive)	> 100 µM (inactive)	> 100 µM (inactive)	> 100 µM (inactive)	–	> 100 µM (inactive)	> 100 µM (inactive)	> 100 µM (inactive)	> 100 µM	> 100 µM (inactive)	> 100 µM (inactive)	–	> 100 µM (inactive)	> 100 µM (inactive)
Cn1c2ccccc2n2c3ccccc3c3nnc(N)c-3c12	57.7 µM (inactive)	> 100 µM (inactive)	8.53 µM (inactive)	> 100 µM (inactive)	1.95 µM (inactive)	–	> 95.3 µM (inactive)	> 100 µM (inactive)	> 81.3 µM (inactive)	42.4 µM (inactive)	> 93.1 µM (inactive)	35.2 µM (inactive)	> 100 µM	> 100 µM (inactive)	1.64 µM (inactive)	22.6 µM (inactive)	> 100 µM (inactive)	17.5 µM (inactive)
O=c1[nH]nc(Cc2ccccc2)n1/N=C\c1ccccc1	> 100 µM (inactive)	> 100 µM (inactive)	> 100 µM (inactive)	> 100 µM (inactive)	32.3 µM (inactive)	> 100 µM (inactive)	–	84.7 µM (inactive)	> 100 µM (inactive)	46.2 µM (inactive)	> 100 µM (inactive)	> 100 µM (inactive)	> 100 µM	> 100 µM (inactive)	> 100 µM (inactive)	31.2 µM (inactive)	> 100 µM (inactive)	> 100 µM (inactive)
C=C1CCCCCCCCC/C=C/1SCCCSC	> 100 µM (inactive)	> 100 µM (inactive)	> 100 µM (inactive)	> 100 µM (inactive)	–	> 100 µM (inactive)	> 100 µM (inactive)	> 100 µM (inactive)	> 100 µM (inactive)	> 100 µM (inactive)	> 100 µM (inactive)	> 100 µM (inactive)	> 100 µM	> 100 µM (inactive)	> 100 µM (inactive)	> 100 µM (inactive)	> 100 µM (inactive)	> 100 µM (inactive)
O=C1COC(c2ccccc2O)=NN1CCCN1CCCC1	–	> 100 µM (inactive)	> 100 µM (inactive)	> 100 µM (inactive)	> 100 µM (inactive)	> 100 µM (inactive)	> 100 µM (inactive)	> 100 µM (inactive)	> 100 µM (inactive)	> 100 µM (inactive)	> 100 µM (inactive)	> 100 µM (inactive)	> 100 µM	> 100 µM (inactive)	> 100 µM (inactive)	> 100 µM (inactive)	> 100 µM (inactive)	> 100 µM (inactive)
C/C(=N\OCC(O)CNCCSCc1ccccc1)c1ccccc1Cl (configuration not stated)	16.8 µM (inactive)	21.8 µM (inactive)	28.7 µM (inactive)	19.3 µM (inactive)	21.4 µM (inactive)	19.5 µM (inactive)	21.8 µM (inactive)	–	20.7 µM (inactive)	13.2 µM (inactive)	17.6 µM (inactive)	21.6 µM (inactive)	18.2 µM	20.6 µM (inactive)	22.6 µM (inactive)	40.4 µM (inactive)	19.1 µM (inactive)	37.5 µM (inactive)
O=c1oc2ccccc2c2c(=O)c3ccc(OC/C(=N/O)c4ccc(Cl)cc4)cc3oc12	11.8 µM (inactive)	11.7 µM (inactive)	–	17.3 µM (inactive)	–	7.89 µM (inactive)	14.6 µM (inactive)	31.5 µM (inactive)	–	11 µM (inactive)	17.4 µM (inactive)	11.2 µM (inactive)	7.4 µM	–	29.4 µM (inactive)	4.85 µM (inactive)	7.35 µM (inactive)	18.4 µM (inactive)
CC1=NN(c2nc(N)nc(/C(C#N)=C/c3ccccc3O)n2)C(C)(C)C1	–	17 µM (inactive)	19.8 µM (inactive)	15.4 µM (inactive)	–	16.9 µM (inactive)	20.8 µM (inactive)	23.1 µM (inactive)	16.7 µM (inactive)	20.1 µM (inactive)	17.3 µM (inactive)	18.3 µM (inactive)	19.4 µM	19.8 µM (inactive)	15.7 µM (inactive)	22.2 µM (inactive)	21.4 µM (inactive)	16.8 µM (inactive)
CC(=O)C1=C(C)N2C(=NC3=C(CCc4ccccc43)C2c2cccc(Br)c2)S1 (configuration not stated)	76.4 µM (inactive)	16.8 µM (inactive)	–	> 100 µM (inactive)	> 100 µM (inactive)	> 100 µM (inactive)	> 100 µM (inactive)	48.2 µM (inactive)	> 100 µM (inactive)	> 100 µM (inactive)	79.6 µM (inactive)	30.8 µM (inactive)	74.8 µM	22.1 µM (inactive)	> 100 µM (inactive)	> 100 µM (inactive)	> 100 µM (inactive)	99.1 µM (inactive)
CN(C)c1nc(N(C)C)nc(N(C)C23CC4CC(CC(C4)C2)C3)n1	–	23.7 µM (inactive)	16.9 µM (inactive)	21.4 µM (inactive)	24.3 µM (inactive)	31.8 µM (inactive)	33.3 µM (inactive)	17.1 µM (inactive)	46.5 µM (inactive)	21.8 µM (inactive)	32.6 µM (inactive)	20.5 µM (inactive)	> 100 µM	–	31.4 µM (inactive)	25.1 µM (inactive)	> 100 µM (inactive)	13.4 µM (inactive)
S=C(NCCc1ccccn1)c1nc[nH]c1C(=S)NCCc1ccccn1	20.7 µM (inactive)	26 µM (inactive)	–	> 100 µM (inactive)	27.5 µM (inactive)	–	31.9 µM (inactive)	34.9 µM (inactive)	52.4 µM (inactive)	53.6 µM (inactive)	46.8 µM (inactive)	34 µM (inactive)	34.6 µM	> 100 µM (inactive)	23.5 µM (inactive)	47.8 µM (inactive)	20.5 µM (inactive)	39.4 µM (inactive)
CC(C)(C)OC(=O)NCC(CNC(=O)OC(C)(C)C)C(N)=O	> 100 µM (inactive)	> 100 µM (inactive)	> 100 µM (inactive)	> 100 µM (inactive)	–	> 100 µM (inactive)	> 100 µM (inactive)	> 100 µM (inactive)	> 100 µM (inactive)	> 100 µM (inactive)	> 100 µM (inactive)	> 100 µM (inactive)	> 100 µM	> 100 µM (inactive)	> 100 µM (inactive)	–	> 100 µM (inactive)	> 100 µM (inactive)
Nc1ncnc2c1nc(Cl)n2C1OC2COP(=O)(O)OC2C1O (configuration not stated)	1.19 µM (inactive)	5.53 µM (inactive)	3.63 µM (inactive)	23.3 µM (inactive)	11.3 µM (inactive)	26.8 µM (inactive)	6.25 µM (inactive)	11 µM (inactive)	> 87.9 µM (inactive)	–	3.41 µM (inactive)	3.09 µM (inactive)	3.76 µM	4.57 µM (inactive)	2.38 µM (inactive)	> 100 µM (inactive)	8.39 µM (inactive)	7.24 µM (inactive)
CC(C)=CCOc1cc(NC(=S)c2ccoc2C)ccc1Cl [UC 781]	14.1 µM (inactive)	> 100 µM (inactive)	> 100 µM (inactive)	> 100 µM (inactive)	16.3 µM (inactive)	> 100 µM (inactive)	–	65.2 µM (inactive)	> 100 µM (inactive)	8.77 µM (inactive)	57.4 µM (inactive)	> 100 µM (inactive)	> 100 µM	> 100 µM (inactive)	5.07 µM (inactive)	> 100 µM (inactive)	> 100 µM (inactive)	> 100 µM (inactive)

Reference: ChEMBL document CHEMBL1201862, “PubChem BioAssay data set” (2004)
